Assays:
[1] = system: illness spreading through the player population; settings: over 300 players, 2014 training period, about 4 hours per day, PHPG about 0.3 ppm; historically two to five players miss three to four days per week
[2] = system: bronchitis, colds, or flu; settings: in vivo
[3] = system: cold, flu, or other respiratory illness; settings: in vivo
DNA = settings: cited from earlier work

Row | SMILES | players missing training days due to illness during spring training [1] | occurrence of bronchitis, colds, or flu [2] | adverse effects of exposure (subject; continuous exposure) | toxicity (subject; levels up to 7 ppm) | subjects contracting cold, flu, or other respiratory illness [3] | mutagenicity / safety (DNA)
1 | OO [PHPG, hydrogen peroxide] | only one player missed one training day due to illness | did not suffer bronchitis, colds, or flu | no adverse effects | non-toxic | none of the subjects contracted cold, flu, or other respiratory illness | 
2 | N#CSO [OSCN−, hypothiocyanate] |  |  |  |  |  | non-mutagenic
